According to patent publication EP0101588A1, “Compositions comprising amino and diamino acid derivatives and use thereof as plant growth stimulants” (S.I.P.C.A.M. S.p.A. Società Italiana Prodotti Chimici e per …, priority 1982, dated 1984):
Where a name gives a salt, the structure may show the parent alone.

Tests used:
Type in all cases: in vivo
Radish = test: Greenhouse radish crop, spraying after emergence; details: 0.01 g/m^2 per treatment, two treatments at an interval of 4 days; for Radish crop roots only: untreated control 165; for Radish crop whole plants: untreated control 198
lettuce = test: Field trial on lettuce, 4 weekly treatments; details: 2 g/100 m^2 per treatment, untreated control 18.0
spinach = test: Field trial on spinach, 4 weekly treatments; details: 2 g/100 m^2 per treatment, untreated control 8.3
San Marzano tomatoes = test: Field trial on tomatoes, spraying before and after flowering; details: 3 g/100 m^2 per treatment, 2 treatments before flowering and 3 weekly after flowering; untreated control 321
Italy grapevines = test: Vineyard trial, applications mixed with fungicides; details: 1 g/100 m^2, 2 weekly applications before and 6 after flowering, mixed with fungicide mixtures; untreated control 234
[1] = system: thiosemicarbazide-treated rabbits with epileptic type syndromes; test: Intramuscular injection in rabbits with epileptic type syndromes; details: 1 ml of 10% aqueous solution, as long as the level of the compound remains adequate
Procedure: Prepare an aqueous solution containing 10% pure N-carboxymethyl-gamma-aminobutyric acid disodium salt and autoclave for 2 h at 115°C.
Inject very slowly by intramuscular route 1 ml of the solution thus prepared in thiosemicarbazide-treated rabbits with epileptic type syndromes.

Row | SMILES | Radish crop roots only (Radish) [g/m^2] | Radish crop whole plants (Radish) [g/m^2] | Harvest Lettuce (lettuce) [kg/100 m^2] | Harvest Spinach (spinach) [kg/100 m^2] | Fruit harvest (San Marzano tomatoes) [kg/100 m^2] | Grape harvest (Italy grapevines) [kg/100 m^2] | convulsions [1]
1 | O=C([O-])CCCNCC(=O)[O-].[Na+].[Na+] [N-carboxymethyl gamma-amino-butyric acid disodium salt] | 280 | 350 | 26.5 | 12.6 | 569 | 351 | convulsions disappear
2 | NCCCCNCC(=O)[O-].[Na+] [N-carboxymethyl-1,4-diamino-butane sodium salt] | 272 | 335 | 23.5 | 11.8 | 574 | 345 | 
3 | CC(NCCCC(=O)O)C(=O)O (stereo not shown) [N-methylcarboxymethyl-gamma-aminobutyric acid disodium salt] | 262 | 321 | 24.3 | 11.5 | 513 | 320 | 
